For 1 substance, Ki results are on record in PMC5310970 (Journal of photochemistry and photobiology. B, Biology, 2016).

pKi: −log10 of the molar value.

The experiment addresses Prostate-specific membrane antigen (PSMA) (Homo sapiens, UniProt Q04609). In words: fluorescence-based NAALADase inhibition assay. In kind it is biochemical.

Prostate-specific membrane antigen (PSMA), sequence (Q04609 whole entry): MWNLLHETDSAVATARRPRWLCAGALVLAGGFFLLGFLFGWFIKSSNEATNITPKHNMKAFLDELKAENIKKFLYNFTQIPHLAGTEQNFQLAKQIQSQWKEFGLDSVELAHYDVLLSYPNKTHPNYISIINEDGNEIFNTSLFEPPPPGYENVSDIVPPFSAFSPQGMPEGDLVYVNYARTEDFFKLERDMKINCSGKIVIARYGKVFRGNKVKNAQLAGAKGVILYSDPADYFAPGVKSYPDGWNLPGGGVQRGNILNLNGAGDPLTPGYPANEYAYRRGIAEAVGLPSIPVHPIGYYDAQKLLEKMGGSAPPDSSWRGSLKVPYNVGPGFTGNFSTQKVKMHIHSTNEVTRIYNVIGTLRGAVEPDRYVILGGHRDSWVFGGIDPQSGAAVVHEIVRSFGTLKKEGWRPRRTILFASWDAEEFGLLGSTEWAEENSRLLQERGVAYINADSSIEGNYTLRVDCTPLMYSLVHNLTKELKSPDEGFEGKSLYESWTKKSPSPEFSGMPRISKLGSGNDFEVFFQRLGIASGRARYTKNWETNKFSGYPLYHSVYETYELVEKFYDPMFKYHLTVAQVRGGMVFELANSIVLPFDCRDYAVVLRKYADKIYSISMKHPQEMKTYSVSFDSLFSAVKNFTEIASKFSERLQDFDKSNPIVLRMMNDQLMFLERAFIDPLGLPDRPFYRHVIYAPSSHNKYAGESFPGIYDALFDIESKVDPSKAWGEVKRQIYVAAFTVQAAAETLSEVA

As a reminder, the pKi is the Ki on a negative log10 scale, so that one unit is a factor of ten. Read a high pKi as a low Ki. Substance YC-9 gave a pKi of 9.70.
